Results published in ChEMBL document CHEMBL1629559, “Real-time PCR detection of gyrA and parC mutations in Streptococcus pneumoniae” (2008).
In brackets after ≈: the same amount, converted by molar mass.

Key:
[1] = system: Streptococcus pneumoniae; assay: Antibacterial activity against Streptococcus pneumoniae CIP104485 by agar disk diffusion method; assay type: functional, CIP1044
[2] = system: Streptococcus pneumoniae; assay: Antibacterial activity against Streptococcus pneumoniae R6 by agar disk diffusion method; assay type: functional
[3] = system: Streptococcus pneumoniae; assay: Antibacterial activity against Streptococcus pneumoniae CP1000 by agar disk diffusion method; assay type: functional
[4] = system: Streptococcus pneumoniae; assay: Antibacterial activity against Streptococcus pneumoniae R6 Tr6 harboring gyrA Ser81Phe mutant gene by agar disk diffusion method; assay type: functional
[5] = system: Streptococcus pneumoniae; assay: Antibacterial activity against Streptococcus pneumoniae U2A1686 harboring gyrA Glu85Lys mutant gene by agar disk diffusion method; assay type: functional
[6] = system: Streptococcus pneumoniae; assay: Antibacterial activity against Streptococcus pneumoniae U2A1050 harboring gyrA Ser81Phe mutant gene by agar disk diffusion method; assay type: functional
[7] = system: Streptococcus pneumoniae; assay: Antibacterial activity against Streptococcus pneumoniae U2A1051 harboring gyrA Ser81Tyr mutant gene by agar disk diffusion method; assay type: functional
[8] = system: Streptococcus pneumoniae; assay: Antibacterial activity against Streptococcus pneumoniae U2A1266 harboring gyrA Ser81Cys mutant gene by agar disk diffusion method; assay type: functional
[9] = system: Streptococcus pneumoniae; assay: Antibacterial activity against Streptococcus pneumoniae R6 Tr1 harboring parC Ser79Tyr mutant gene by agar disk diffusion method; assay type: functional
[10] = system: Streptococcus pneumoniae; assay: Antibacterial activity against Streptococcus pneumoniae U2A1053 harboring parC Ser79Phe mutant gene by agar disk diffusion method; assay type: functional
[11] = system: Streptococcus pneumoniae; assay: Antibacterial activity against Streptococcus pneumoniae U2A1413 harboring parC Ser79Tyr mutant gene by agar disk diffusion method; assay type: functional
[12] = system: Streptococcus pneumoniae; assay: Antibacterial activity against Streptococcus pneumoniae U2A1411 harboring parC Asp83Gly mutant gene by agar disk diffusion method; assay type: functional
[13] = system: Streptococcus pneumoniae; assay: Antibacterial activity against Streptococcus pneumoniae U2A1681 harboring parC Ser79Tyr Asp83Ala mutant gene by agar disk diffusion method; assay type: functional
[14] = system: Streptococcus pneumoniae; assay: Antibacterial activity against Streptococcus pneumoniae R6 Tr10 harboring gyrA Ser81Tyr parC Ser79Tyr mutant gene by agar disk diffusion method; assay type: functional
[15] = system: Streptococcus pneumoniae; assay: Antibacterial activity against Streptococcus pneumoniae U2A1056 harboring gyrA Ser81Tyr parC Asp83His mutant gene by agar disk diffusion method; assay type: functional
[16] = system: Streptococcus pneumoniae; assay: Antibacterial activity against Streptococcus pneumoniae U2A1060 harboring gyrA Ser81Phe parC Asp83His mutant gene by agar disk diffusion method; assay type: functional
[17] = system: Streptococcus pneumoniae; assay: Antibacterial activity against Streptococcus pneumoniae U2A1414 harboring gyrA Glu85Lys parC Ser79Phe mutant gene by agar disk diffusion method; assay type: functional
[18] = system: Streptococcus pneumoniae; assay: Antibacterial activity against Streptococcus pneumoniae CIP104485 by agar dilution method; assay type: functional; conditions: CIP1044
[19] = system: Streptococcus pneumoniae; assay: Antibacterial activity against Streptococcus pneumoniae R6 by agar dilution method; assay type: functional
[20] = system: Streptococcus pneumoniae; assay: Antibacterial activity against Streptococcus pneumoniae CP1000 by agar dilution method; assay type: functional
[21] = system: Streptococcus pneumoniae; assay: Antibacterial activity against Streptococcus pneumoniae R6 Tr6 harboring gyrA Ser81Phe mutant gene by agar dilution method; assay type: functional
[22] = system: Streptococcus pneumoniae; assay: Antibacterial activity against Streptococcus pneumoniae U2A1686 harboring gyrA Glu85Lys mutant gene by agar dilution method; assay type: functional
[23] = system: Streptococcus pneumoniae; assay: Antibacterial activity against Streptococcus pneumoniae U2A1050 harboring gyrA Ser81Phe mutant gene by agar dilution method; assay type: functional
[24] = system: Streptococcus pneumoniae; assay: Antibacterial activity against Streptococcus pneumoniae U2A1051 harboring gyrA Ser81Tyr mutant gene by agar dilution method; assay type: functional
[25] = system: Streptococcus pneumoniae; assay: Antibacterial activity against Streptococcus pneumoniae U2A1266 harboring gyrA Ser81Cys mutant gene by agar dilution method; assay type: functional
[26] = system: Streptococcus pneumoniae; assay: Antibacterial activity against Streptococcus pneumoniae R6 Tr1 harboring parC Ser79Tyr mutant gene by agar dilution method; assay type: functional
[27] = system: Streptococcus pneumoniae; assay: Antibacterial activity against Streptococcus pneumoniae U2A1053 harboring parC Ser79Phe mutant gene by agar dilution method; assay type: functional
[28] = system: Streptococcus pneumoniae; assay: Antibacterial activity against Streptococcus pneumoniae U2A1413 harboring parC Ser79Tyr mutant gene by agar dilution method; assay type: functional
[29] = system: Streptococcus pneumoniae; assay: Antibacterial activity against Streptococcus pneumoniae U2A1411 harboring parC Asp83Gly mutant gene by agar dilution method; assay type: functional
[30] = system: Streptococcus pneumoniae; assay: Antibacterial activity against Streptococcus pneumoniae U2A1681 harboring parC Ser79Tyr Asp83Ala mutant gene by agar dilution method; assay type: functional
[31] = system: Streptococcus pneumoniae; assay: Antibacterial activity against Streptococcus pneumoniae R6 Tr10 harboring gyrA Ser81Tyr parC Ser79Tyr mutant gene by agar dilution method; assay type: functional
[32] = system: Streptococcus pneumoniae; assay: Antibacterial activity against Streptococcus pneumoniae U2A1056 harboring gyrA Ser81Tyr parC Asp83His mutant gene by agar dilution method; assay type: functional
[33] = system: Streptococcus pneumoniae; assay: Antibacterial activity against Streptococcus pneumoniae U2A1060 harboring gyrA Ser81Phe parC Asp83His mutant gene by agar dilution method; assay type: functional
[34] = system: Streptococcus pneumoniae; assay: Antibacterial activity against Streptococcus pneumoniae U2A1414 harboring gyrA Glu85Lys parC Ser79Phe mutant gene by agar dilution method; assay type: functional
[35] = system: Streptococcus pneumoniae; assay: Antibacterial activity against Streptococcus pneumoniae H548 clinical isolate harboring gyrA Ser81Phe mutant gene by agar disk diffusion method; assay type: functional
[36] = system: Streptococcus pneumoniae; assay: Antibacterial activity against Streptococcus pneumoniae U2A1693 harboring parC Asp83Asn mutant gene by agar disk diffusion method; assay type: functional
[37] = system: Streptococcus pneumoniae; assay: Antibacterial activity against Streptococcus pneumoniae U2A1693 harboring parC Asp83Asn mutant gene by agar dilution method; assay type: functional

| Compound | diameter of the inhibition zone (DIZ) [1] [mm] | diameter of the inhibition zone (DIZ) [2] [mm] | diameter of the inhibition zone (DIZ) [3] [mm] | diameter of the inhibition zone (DIZ) [4] [mm] | diameter of the inhibition zone (DIZ) [5] [mm] | diameter of the inhibition zone (DIZ) [6] [mm] | diameter of the inhibition zone (DIZ) [7] [mm] | diameter of the inhibition zone (DIZ) [8] [mm] | diameter of the inhibition zone (DIZ) [9] [mm] | diameter of the inhibition zone (DIZ) [10] [mm] | diameter of the inhibition zone (DIZ) [11] [mm] | diameter of the inhibition zone (DIZ) [12] [mm] | diameter of the inhibition zone (DIZ) [13] [mm] | diameter of the inhibition zone (DIZ) [14] [mm] | diameter of the inhibition zone (DIZ) [15] [mm] | diameter of the inhibition zone (DIZ) [16] [mm] | diameter of the inhibition zone (DIZ) [17] [mm] | MIC [18] [µg/mL] | MIC [19] [µg/mL] | MIC [34] [µg/mL] | also measured |
| --- | --- | --- | --- | --- | --- | --- | --- | --- | --- | --- | --- | --- | --- | --- | --- | --- | --- | --- | --- | --- | --- |
| O=C(O)c1cn(C2CC2)c2cc(N3CCNCC3)c(F)cc2c1=O [CIPROFLOXACIN] | 25 | 21 | 23 | 21 | 25 | 23 | 22 | 23 | 19 | 19 | 24 | 10 | 6 | 6 | 6 | 6 | 6 | 1 (≈ 3.02 µM) | 1 (≈ 3.02 µM) | > 32 | MIC [20]: 1 µg/mL (≈ 3.02 µM); MIC [21]: 1 µg/mL (≈ 3.02 µM); MIC [22]: 1 µg/mL (≈ 3.02 µM); MIC [23]: 2 µg/mL (≈ 6.04 µM); MIC [24]: 2 µg/mL (≈ 6.04 µM); MIC [25]: 2 µg/mL (≈ 6.04 µM); MIC [26]: 2 µg/mL (≈ 6.04 µM); MIC [27]: 4 µg/mL (≈ 12.1 µM); MIC [28]: 2 µg/mL (≈ 6.04 µM); MIC [29]: > 32 µg/mL; MIC [30]: > 32 µg/mL; MIC [31]: > 32 µg/mL; MIC [32]: 32 µg/mL (≈ 96.6 µM); MIC [33]: > 32 µg/mL |
| C[C@H]1COc2c(N3CCN(C)CC3)c(F)cc3c(=O)c(C(=O)O)cn1c23.C[C@H]1COc2c(N3CCN(C)CC3)c(F)cc3c(=O)c(C(=O)O)cn1c23.O [LEVOFLOXACIN] | 22 | 21 | 24 | 23 | 26 | 19 | 22 | 21 | 21 | 22 | 22 | 15 | 6 | 6 | 12 | 6 | 6 | – | – | > 32 | diameter of the inhibition zone (DIZ) [35]: 6 mm; diameter of the inhibition zone (DIZ) [36]: 19 mm |
| COc1c(N2C[C@@H]3CCCN[C@@H]3C2)c(F)cc2c(=O)c(C(=O)O)cn(C3CC3)c12 [MOXIFLOXACIN] | 26 | 26 | 28 | 24 | 27 | 25 | 25 | 26 | 28 | 26 | 31 | 25 | 12 | 18 | – | 18 | 17 | 0.125 (≈ 0.311 µM) | 0.125 (≈ 0.311 µM) | 8 (≈ 19.9 µM) | diameter of the inhibition zone (DIZ) [36]: 27 mm; MIC [20]: 0.25 µg/mL (≈ 0.623 µM); MIC [21]: 0.5 µg/mL (≈ 1.25 µM); MIC [22]: 0.5 µg/mL (≈ 1.25 µM); MIC [23]: 1 µg/mL (≈ 2.49 µM); MIC [24]: 1 µg/mL (≈ 2.49 µM); MIC [25]: 0.5 µg/mL (≈ 1.25 µM); MIC [26]: 0.5 µg/mL (≈ 1.25 µM); MIC [27]: 0.25 µg/mL (≈ 0.623 µM); MIC [28]: 0.25 µg/mL (≈ 0.623 µM); MIC [37]: 0.5 µg/mL (≈ 1.25 µM); MIC [29]: 0.5 µg/mL (≈ 1.25 µM); MIC [30]: 8 µg/mL (≈ 19.9 µM); MIC [32]: 2 µg/mL (≈ 4.98 µM) |
| CCn1cc(C(=O)O)c(=O)c2ccc(C)nc21 [NALIDIXIC ACID] | 6 | 6 | 6 | 6 | 6 | 6 | 8 | 6 | 6 | 13 | 6 | 6 | 6 | 6 | 6 | 14 | 6 | – | – | – | diameter of the inhibition zone (DIZ) [35]: 6 mm; diameter of the inhibition zone (DIZ) [36]: 6 mm |
| CCn1cc(C(=O)O)c(=O)c2cc(F)c(N3CCN(C)CC3)cc21 [PEFLOXACIN] | 18 | 17 | 21 | 19 | 23 | 18 | 20 | 17 | – | 13 | 13 | – | – | – | – | – | – | 8 (≈ 24 µM) | 8 (≈ 24 µM) | > 128 | MIC [20]: 4 µg/mL (≈ 12 µM); MIC [21]: 8 µg/mL (≈ 24 µM); MIC [22]: 8 µg/mL (≈ 24 µM); MIC [23]: 16 µg/mL (≈ 48 µM); MIC [24]: 16 µg/mL (≈ 48 µM); MIC [25]: 16 µg/mL (≈ 48 µM); MIC [26]: 64 µg/mL (≈ 192 µM); MIC [27]: 128 µg/mL (≈ 384 µM); MIC [28]: 32 µg/mL (≈ 96 µM); MIC [37]: 64 µg/mL (≈ 192 µM); MIC [29]: 64 µg/mL (≈ 192 µM); MIC [30]: > 128 µg/mL; MIC [31]: > 128 µg/mL; MIC [32]: 64 µg/mL (≈ 192 µM); MIC [33]: 128 µg/mL (≈ 384 µM) |
| C[C@@H]1CN(c2c(F)c(N)c3c(=O)c(C(=O)O)cn(C4CC4)c3c2F)C[C@H](C)N1 [SPARFLOXACIN] | 24 | 23 | 26 | 23 | 24 | 22 | 22 | 23 | 25 | 25 | 28 | 19 | 6 | 12 | 11 | 11 | 6 | 0.25 (≈ 0.637 µM) | 0.25 (≈ 0.637 µM) | > 32 | diameter of the inhibition zone (DIZ) [35]: 20 mm; diameter of the inhibition zone (DIZ) [36]: 24 mm; MIC [20]: 0.25 µg/mL (≈ 0.637 µM); MIC [21]: 1 µg/mL (≈ 2.55 µM); MIC [22]: 2 µg/mL (≈ 5.1 µM); MIC [23]: 2 µg/mL (≈ 5.1 µM); MIC [24]: 2 µg/mL (≈ 5.1 µM); MIC [25]: 1 µg/mL (≈ 2.55 µM); MIC [26]: 1 µg/mL (≈ 2.55 µM); MIC [27]: 0.25 µg/mL (≈ 0.637 µM); MIC [28]: 0.25 µg/mL (≈ 0.637 µM); MIC [30]: 32 µg/mL (≈ 81.5 µM); MIC [31]: 16 µg/mL (≈ 40.8 µM); MIC [32]: 8 µg/mL (≈ 20.4 µM); MIC [33]: 16 µg/mL (≈ 40.8 µM) |
